Measurements published in US11318107B2, “Pharmaceutical active-containing film delivery device for oral transmucosal administration” (Avior, Inc., priority 2019, dated 2022).
Where a name gives a salt, the structure may show the parent alone.

Tests used:
[1] = Solubility of nalmefene HCl in polar solvents at 100 mg/mL; format: physicochemical; conditions: test concentration 100 mg/mL
Text: Ethanol, propylene glycol, glycerol, methanol, and water were considered.

[2] = cited from earlier work
in vivo = conditions: both, beagle, dog, plasma, iv, 4 mg/animal
[3] = Solubility evaluation of nalmefene in solvent systems; format: physicochemical
Procedure: In addition, the solubility of nalmefene in varying concentrations was evaluated using different combinations of solvent systems. The solvent systems included combinations of polar solvents with different surface active agents. The solvent systems provided different volatilization rates. […] Exemplary surface active agents included: Tween 20, Tween 80, Gelucire® 34/44, Kolliphor® HS 15, Solutol® NF, Labrafil® M2125 CS and Labrafil® M1944 CS.

[4] = Pharmacokinetic study of nalmefene buccal films and nalmefene IV in beagle dogs (plasma, LC/MS, noncompartmental analysis); conditions: majority of concentrations, after buccal film or IV nalmefene, lower limit of quantitation 0.1 ng/mL

C=C1CC[C@@]2(O)[C@H]3Cc4ccc(O)c5c4[C@@]2(CCN3CC2CC2)[C@H]1O5 [Nalmefene HCl Monohydrate]
Solubility of Nalmefene HCl Monohydrate ([1]; Ethanol NF): Partially | Solubility of Nalmefene HCl Monohydrate ([1]; Glycerol USP): Partially | Solubility of Nalmefene HCl Monohydrate ([1]; Methanol): Highly | Solubility of Nalmefene HCl Monohydrate ([1]; Propylene glycol USP): Partially | Solubility of Nalmefene HCl Monohydrate ([1]; Water NF): Moderately high

C=C1CC[C@@]2(O)[C@H]3Cc4ccc(O)c5c4[C@@]2(CCN3CC2CC2)[C@H]1O5 [Nalmefene hydrochloride]
pKa1 ([2]; amine): 8.38 | log P [2]: 2.66 | Solubility in water ([2]; freely soluble): up to 130 mg/mL | pKa2 ([2]; phenol): 10.00 | Solubility in chloroform ([2]; slightly soluble): up to 0.13 mg/mL

C=C1CC[C@@]2(O)[C@H]3Cc4ccc(O)c5c4[C@@]2(CCN3CC2CC2)[C@H]1O5 [nalmefene, 6-methylene-6-deoxy-N-cyclopropylmethyl-14 hydroxydihydronormorphine]
Vd (in vivo): 2.77 L/kg | clearance (in vivo): 46.2 mL/min/kg | half-life (in vivo): 1.34 h | Solubility observation ([3]; Ethanol:Water 75:25, nalmefene 200 mg/mL): Completely Soluble, | Solubility observation ([3]; Ethanol:Water:Gelucire 34/14 75:20:5, nalmefene 200 mg/mL): Completely Soluble, | Solubility observation ([3]; Ethanol:Water:Glycerine 70:20:10, nalmefene 300 mg/mL): Completely Soluble, | Solubility observation ([3]; Ethanol:Water:Labrafil M1944 CS 80:17.5:2.5, nalmefene 200 mg/mL): Completely Soluble, | Solubility observation ([3]; Ethanol:Water:Labrafil M2125 OS 80:17.5:2.5, nalmefene 200 mg/mL): Completely Soluble, | Solubility observation ([3]; Ethanol:Water:Propylene Glycol 68:22:10, nalmefene 350 mg/mL): Completely Soluble, | Solubility observation ([3]; Ethanol:Water:Propylene Glycol 82.5:12.5:5, nalmefene 200 mg/mL): Completely Soluble, | Solubility observation ([3]; Ethanol:Water:Propylene Glycol:Tween 80 70:25:4:1, nalmefene 350 mg/mL): Completely Soluble, | Solubility observation ([3]; Ethanol:Water:Tween 20 75:24.5:0.5, nalmefene 250 mg/mL): Completely Soluble,

C=C1CC[C@@]2(O)[C@H]3Cc4ccc(O)c5c4[C@@]2(CCN3)[C@H]1O5 [nornalmefene]
Nornalmefene (metabolite) plasma concentrations [4]: below the limit of quantitation
